Calls of active or inactive are those of the source. No cut-off for these calls is given here.

The Ki is a measure of affinity in units of concentration, obtained from inhibition or displacement. Read a low Ki as higher affinity. One may read the IC50 as the midpoint of a concentration-inhibition curve.

Assay [1] deals with D(2) dopamine receptor (Homo sapiens) (UniProt P14416). Put plainly: Displacement of radioligand from dopamine D2 receptor by liquid scintillation spectrometry.
Assay [2] is described as follows: Displacement of radioligand from calcium channel by liquid scintillation spectrometry.
The target of assay [3] is T1, Adrenergic receptor alpha-2 (Rattus norvegicus, UniProt P22086+P19328+P22909).
T1 sequence (P22086 whole entry): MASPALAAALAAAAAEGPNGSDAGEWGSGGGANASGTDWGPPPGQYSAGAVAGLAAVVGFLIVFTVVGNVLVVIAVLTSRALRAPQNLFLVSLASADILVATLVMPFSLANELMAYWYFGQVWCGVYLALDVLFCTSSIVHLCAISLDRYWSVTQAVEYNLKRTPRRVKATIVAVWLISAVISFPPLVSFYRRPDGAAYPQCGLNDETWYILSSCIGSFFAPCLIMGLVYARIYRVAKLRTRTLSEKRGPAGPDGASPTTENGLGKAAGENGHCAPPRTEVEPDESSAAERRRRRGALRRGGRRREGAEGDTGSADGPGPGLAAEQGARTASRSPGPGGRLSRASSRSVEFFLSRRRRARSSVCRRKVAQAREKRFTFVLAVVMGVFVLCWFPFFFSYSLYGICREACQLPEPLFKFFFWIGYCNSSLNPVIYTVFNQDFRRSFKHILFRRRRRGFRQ
T1 sequence (P19328 whole entry): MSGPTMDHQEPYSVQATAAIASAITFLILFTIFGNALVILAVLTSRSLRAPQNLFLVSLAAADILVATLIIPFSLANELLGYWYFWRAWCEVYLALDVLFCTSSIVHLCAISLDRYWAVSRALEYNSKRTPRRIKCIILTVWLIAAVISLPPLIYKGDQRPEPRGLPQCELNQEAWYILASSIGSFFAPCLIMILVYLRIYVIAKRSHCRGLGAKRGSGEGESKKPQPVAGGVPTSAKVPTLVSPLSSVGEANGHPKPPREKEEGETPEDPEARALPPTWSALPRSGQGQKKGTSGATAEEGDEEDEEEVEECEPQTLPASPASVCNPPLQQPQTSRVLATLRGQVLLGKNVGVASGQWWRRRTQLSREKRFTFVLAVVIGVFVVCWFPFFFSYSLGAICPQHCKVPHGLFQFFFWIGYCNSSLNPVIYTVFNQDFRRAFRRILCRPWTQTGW
T1 sequence (P22909 whole entry): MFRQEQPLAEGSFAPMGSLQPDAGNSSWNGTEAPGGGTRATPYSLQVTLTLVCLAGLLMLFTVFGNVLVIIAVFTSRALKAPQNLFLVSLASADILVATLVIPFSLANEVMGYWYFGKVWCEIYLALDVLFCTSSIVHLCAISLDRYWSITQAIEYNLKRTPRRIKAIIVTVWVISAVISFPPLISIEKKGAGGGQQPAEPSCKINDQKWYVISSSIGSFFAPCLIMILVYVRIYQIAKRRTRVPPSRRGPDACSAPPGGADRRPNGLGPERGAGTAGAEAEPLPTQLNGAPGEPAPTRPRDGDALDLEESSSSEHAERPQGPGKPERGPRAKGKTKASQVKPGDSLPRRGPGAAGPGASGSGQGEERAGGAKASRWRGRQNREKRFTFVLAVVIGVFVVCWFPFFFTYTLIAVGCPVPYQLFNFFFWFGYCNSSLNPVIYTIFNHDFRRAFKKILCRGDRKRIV
Put plainly: Displacement of radioligand from rat alpha2 adrenergic receptor by liquid scintillation spectrometry.

A short description of assay [4]: Displacement of radioligand from potassium channel by liquid scintillation spectrometry.
Assay [5] can be described thus: Displacement of radioligand from glycine receptor by liquid scintillation spectrometry.
Assay [6] can be described thus: Displacement of radioligand from NMDA receptor by liquid scintillation spectrometry.
For assay [7], the target named is T2, 5-hydroxytryptamine receptor 3A (Homo sapiens, UniProt P46098).
T2 sequence (P46098 whole entry): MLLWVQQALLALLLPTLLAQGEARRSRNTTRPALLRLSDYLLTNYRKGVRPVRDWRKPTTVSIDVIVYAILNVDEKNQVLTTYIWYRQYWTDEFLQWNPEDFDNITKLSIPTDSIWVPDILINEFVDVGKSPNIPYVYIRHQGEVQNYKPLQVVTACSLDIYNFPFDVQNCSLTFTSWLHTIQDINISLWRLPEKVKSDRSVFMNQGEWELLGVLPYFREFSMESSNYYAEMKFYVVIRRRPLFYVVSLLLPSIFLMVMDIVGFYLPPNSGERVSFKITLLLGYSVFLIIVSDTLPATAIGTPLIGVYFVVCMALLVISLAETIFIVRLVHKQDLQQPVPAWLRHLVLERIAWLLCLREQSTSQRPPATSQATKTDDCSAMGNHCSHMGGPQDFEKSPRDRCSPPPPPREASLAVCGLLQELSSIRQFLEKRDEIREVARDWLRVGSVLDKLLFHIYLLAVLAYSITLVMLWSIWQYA
Put plainly: Displacement of radioligand from 5HT3 receptor by liquid scintillation spectrometry.

Assay [8] addresses T3, Adrenergic receptor alpha-1 (Rattus norvegicus, UniProt P15823+P23944+P43140).
T3 sequence (P15823 whole entry): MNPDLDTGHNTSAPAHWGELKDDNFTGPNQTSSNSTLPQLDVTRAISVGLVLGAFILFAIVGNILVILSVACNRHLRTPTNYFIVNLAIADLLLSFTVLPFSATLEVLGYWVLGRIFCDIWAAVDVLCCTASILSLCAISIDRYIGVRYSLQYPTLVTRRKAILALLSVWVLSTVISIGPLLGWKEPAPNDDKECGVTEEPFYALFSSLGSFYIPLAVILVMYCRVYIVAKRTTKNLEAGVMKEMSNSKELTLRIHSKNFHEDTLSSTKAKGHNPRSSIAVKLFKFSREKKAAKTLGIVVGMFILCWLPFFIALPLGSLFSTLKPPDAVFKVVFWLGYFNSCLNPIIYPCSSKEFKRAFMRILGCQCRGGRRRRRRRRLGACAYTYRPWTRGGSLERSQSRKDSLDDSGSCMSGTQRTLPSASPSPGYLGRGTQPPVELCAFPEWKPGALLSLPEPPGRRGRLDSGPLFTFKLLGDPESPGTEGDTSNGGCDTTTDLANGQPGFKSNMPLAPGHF
T3 sequence (P23944 whole entry): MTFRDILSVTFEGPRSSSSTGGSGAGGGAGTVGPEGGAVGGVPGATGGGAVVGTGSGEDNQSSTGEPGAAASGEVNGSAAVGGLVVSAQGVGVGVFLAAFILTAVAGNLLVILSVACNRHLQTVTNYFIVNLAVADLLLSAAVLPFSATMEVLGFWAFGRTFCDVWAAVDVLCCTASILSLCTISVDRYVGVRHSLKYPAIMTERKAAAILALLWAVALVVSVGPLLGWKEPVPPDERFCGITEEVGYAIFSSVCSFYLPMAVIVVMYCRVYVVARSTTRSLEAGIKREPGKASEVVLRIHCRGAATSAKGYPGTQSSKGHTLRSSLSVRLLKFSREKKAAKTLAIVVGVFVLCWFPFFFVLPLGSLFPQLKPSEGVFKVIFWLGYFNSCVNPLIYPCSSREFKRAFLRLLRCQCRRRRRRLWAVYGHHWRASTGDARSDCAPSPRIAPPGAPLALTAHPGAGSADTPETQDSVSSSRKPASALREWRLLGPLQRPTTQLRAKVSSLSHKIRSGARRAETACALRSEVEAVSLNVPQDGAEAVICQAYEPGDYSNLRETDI
T3 sequence (P43140 whole entry): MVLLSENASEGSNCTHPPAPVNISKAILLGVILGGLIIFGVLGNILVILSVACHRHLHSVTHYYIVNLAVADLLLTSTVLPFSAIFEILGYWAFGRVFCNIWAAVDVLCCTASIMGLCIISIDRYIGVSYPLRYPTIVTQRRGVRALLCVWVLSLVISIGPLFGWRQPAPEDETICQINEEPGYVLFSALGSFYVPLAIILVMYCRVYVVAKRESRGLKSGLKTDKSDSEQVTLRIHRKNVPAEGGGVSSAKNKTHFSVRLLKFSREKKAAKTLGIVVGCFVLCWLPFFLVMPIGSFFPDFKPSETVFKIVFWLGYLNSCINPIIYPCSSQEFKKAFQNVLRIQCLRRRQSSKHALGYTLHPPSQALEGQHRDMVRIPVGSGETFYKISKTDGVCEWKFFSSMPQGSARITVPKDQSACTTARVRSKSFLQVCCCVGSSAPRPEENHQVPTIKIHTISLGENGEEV
Put plainly: Displacement of radioligand from rat alpha1 adrenergic receptor by liquid scintillation spectrometry.

Assay [9] in a line: Displacement of radioligand from GABAA receptor by liquid scintillation spectrometry.
The target in assay [10] is D(1A) dopamine receptor (Homo sapiens) (UniProt P21728). The assay is described as follows: Displacement of radioligand from dopamine D1 receptor by liquid scintillation spectrometry.
Assay [11] deals with 5-hydroxytryptamine receptor 2A (Homo sapiens, UniProt P28223). Put plainly: Displacement of radioligand from 5HT2 receptor by liquid scintillation spectrometry.
Assay [12] concerns the target T4, Glucocorticoid receptor (Homo sapiens) (UniProt P04150).
T4 sequence (whole entry): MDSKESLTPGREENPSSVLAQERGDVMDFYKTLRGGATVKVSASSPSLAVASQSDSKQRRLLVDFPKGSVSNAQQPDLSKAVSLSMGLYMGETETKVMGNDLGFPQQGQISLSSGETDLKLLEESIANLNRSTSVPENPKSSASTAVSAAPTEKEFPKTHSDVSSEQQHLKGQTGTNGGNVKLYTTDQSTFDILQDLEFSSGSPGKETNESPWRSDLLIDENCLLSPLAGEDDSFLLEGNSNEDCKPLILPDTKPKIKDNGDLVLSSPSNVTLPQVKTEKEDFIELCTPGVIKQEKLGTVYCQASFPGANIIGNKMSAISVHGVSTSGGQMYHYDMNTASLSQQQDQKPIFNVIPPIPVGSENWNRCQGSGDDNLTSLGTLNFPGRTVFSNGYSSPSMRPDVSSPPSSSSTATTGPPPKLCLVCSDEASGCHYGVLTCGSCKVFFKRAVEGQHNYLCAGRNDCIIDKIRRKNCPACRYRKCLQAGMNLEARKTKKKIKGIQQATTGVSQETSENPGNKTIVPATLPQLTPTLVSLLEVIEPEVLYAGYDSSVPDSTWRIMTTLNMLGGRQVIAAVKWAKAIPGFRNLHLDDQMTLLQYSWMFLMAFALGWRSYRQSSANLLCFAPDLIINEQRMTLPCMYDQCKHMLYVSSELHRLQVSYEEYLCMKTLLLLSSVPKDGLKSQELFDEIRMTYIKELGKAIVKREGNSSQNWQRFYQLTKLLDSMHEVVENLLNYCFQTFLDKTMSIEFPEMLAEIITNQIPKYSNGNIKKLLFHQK
Put plainly: Displacement of radioligand from glucocorticoid receptor by liquid scintillation spectrometry.

Assay [13] is described as follows: Displacement of radioligand from muscarinic receptor by liquid scintillation spectrometry.
For assay [14], the target named is T5, 5-hydroxytryptamine receptor 1A (Homo sapiens, UniProt P08908).
T5 sequence (P08908 whole entry): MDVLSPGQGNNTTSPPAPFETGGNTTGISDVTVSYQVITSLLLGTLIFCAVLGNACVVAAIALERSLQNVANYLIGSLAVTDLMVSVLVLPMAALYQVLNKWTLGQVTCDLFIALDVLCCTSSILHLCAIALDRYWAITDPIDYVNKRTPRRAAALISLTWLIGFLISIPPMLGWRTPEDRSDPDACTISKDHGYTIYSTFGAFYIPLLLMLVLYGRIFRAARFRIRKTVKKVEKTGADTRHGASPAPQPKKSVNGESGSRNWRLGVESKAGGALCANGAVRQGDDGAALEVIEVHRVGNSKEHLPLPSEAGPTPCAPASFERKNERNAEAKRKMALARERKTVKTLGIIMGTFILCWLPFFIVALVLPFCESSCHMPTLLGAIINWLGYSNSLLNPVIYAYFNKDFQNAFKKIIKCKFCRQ
Put plainly: Displacement of radioligand from 5HT1A receptor by liquid scintillation spectrometry.

Assay [15] can be described thus: Displacement of radioligand from rat sodium channel batrachotoxin binding site by liquid scintillation spectrometry.
Assay [16] can be described thus: Displacement of radioligand from AMPA receptor by liquid scintillation spectrometry.
The nature of assay [17]: Displacement of radioligand from GABAB receptor by liquid scintillation spectrometry.

Sequence of D(2) dopamine receptor (Homo sapiens) (P14416 whole entry): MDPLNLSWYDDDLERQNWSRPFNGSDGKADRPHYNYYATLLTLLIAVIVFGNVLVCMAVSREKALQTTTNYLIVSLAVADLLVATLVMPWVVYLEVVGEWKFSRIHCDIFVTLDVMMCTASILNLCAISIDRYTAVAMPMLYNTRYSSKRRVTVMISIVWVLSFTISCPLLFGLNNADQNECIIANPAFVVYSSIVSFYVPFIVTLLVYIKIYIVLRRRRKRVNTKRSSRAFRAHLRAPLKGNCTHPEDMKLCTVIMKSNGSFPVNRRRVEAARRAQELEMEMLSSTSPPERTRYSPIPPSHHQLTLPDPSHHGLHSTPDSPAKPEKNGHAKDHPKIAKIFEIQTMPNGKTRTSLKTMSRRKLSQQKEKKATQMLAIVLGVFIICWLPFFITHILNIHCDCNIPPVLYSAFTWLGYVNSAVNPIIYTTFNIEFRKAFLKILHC
Sequence of D(1A) dopamine receptor (Homo sapiens) (P21728 whole entry): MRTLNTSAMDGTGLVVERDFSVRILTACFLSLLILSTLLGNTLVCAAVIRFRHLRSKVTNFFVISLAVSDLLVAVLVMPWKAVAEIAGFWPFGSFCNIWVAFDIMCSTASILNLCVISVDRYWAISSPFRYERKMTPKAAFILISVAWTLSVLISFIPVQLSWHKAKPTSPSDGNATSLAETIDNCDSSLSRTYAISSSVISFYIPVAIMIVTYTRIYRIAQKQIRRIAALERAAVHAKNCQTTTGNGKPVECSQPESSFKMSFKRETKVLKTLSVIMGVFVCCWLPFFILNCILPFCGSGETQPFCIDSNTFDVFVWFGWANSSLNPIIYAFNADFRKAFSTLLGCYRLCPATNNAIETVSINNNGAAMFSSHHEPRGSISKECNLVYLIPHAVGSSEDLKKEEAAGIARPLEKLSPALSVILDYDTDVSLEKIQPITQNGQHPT
Sequence of 5-hydroxytryptamine receptor 2A (P28223 whole entry): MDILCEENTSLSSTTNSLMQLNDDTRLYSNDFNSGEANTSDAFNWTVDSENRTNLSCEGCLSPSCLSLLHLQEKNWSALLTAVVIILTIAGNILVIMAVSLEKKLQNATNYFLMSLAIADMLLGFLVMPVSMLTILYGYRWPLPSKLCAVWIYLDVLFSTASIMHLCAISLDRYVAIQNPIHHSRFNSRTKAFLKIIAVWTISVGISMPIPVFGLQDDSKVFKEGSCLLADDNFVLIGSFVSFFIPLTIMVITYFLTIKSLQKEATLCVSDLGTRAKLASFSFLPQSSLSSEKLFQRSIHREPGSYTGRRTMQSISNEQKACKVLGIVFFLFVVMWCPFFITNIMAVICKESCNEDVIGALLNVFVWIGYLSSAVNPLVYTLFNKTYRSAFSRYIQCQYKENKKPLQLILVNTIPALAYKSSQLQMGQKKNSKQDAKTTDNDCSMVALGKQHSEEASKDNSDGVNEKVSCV

`CC[C@]12CCCN3CC[C@@]4([C@H]5CCCC[C@H]5N[C@H]4[C@@H](C(=O)OC)C1)[C@@H]32.Cl.Cl`: the result in assay [1], in assay [2], in assay [4], in assay [5], in assay [6] and in [9] was inactive. Besides, the result in assay [10], in assay [12], in assay [13], in [16] and in assay [17] was inactive. For the same compound, the Ki in assay [3] was over 100 µM; in assay [8], over 100 µM; in assay [15], 3.7 µM. Moreover, the IC50 in assay [7] was over 100 µM; in [11] it was over 10 µM; in [14], over 10 µM.

With `CC[C@]12CCCN3CC[C@@]4([C@H]5CCCC[C@H]5N[C@H]4[C@@H](C(=O)[O-])C1)[C@@H]32.[Na+]`, the result in assay [1], in assay [2], in [4], in assay [5], in [6] and in assay [9] was inactive. The result in [10], in assay [12], in assay [13], in assay [16] and in assay [17] was inactive. The Ki is over 100 µM in [3], over 100 µM in assay [8] and over 10 µM in assay [15]. Also, the IC50 is over 100 µM in assay [7], over 10 µM in assay [11] and over 10 µM in assay [14].

Take `COc1ccc(C(=O)O[C@H]2CC[C@@]3(C)[C@@H]4CC[C@H]5[C@]6(O)C[C@H](O)[C@@]7(O)[C@@H](CN8C[C@@H](C)CC[C@H]8[C@@]7(C)O)[C@]6(O)C[C@@]53O[C@]24O)cc1OC` [VERATRIDINE]: in assay [15], the Ki worked out at 2.1 µM.

For the origin of these results see ChEMBL document CHEMBL1145679, “Perhydrogenation of tabersonine, ans Aspidiosperma indole alkaloid” (J Nat Prod, 1997).
